# According to US20100009956A1, “NOVEL SUBSTITUTED PYRIMIDINES AS CYSTEINE PROTEASE INHIBITORS” (Glaxo Group Limited , a corporation, priority 2006, published 2010):
# pIC50: −log10 of the molar value. Where a name gives a salt, the structure may show the parent alone.
# Assays:
# [1] = tested on: Plasmodium falciparum parasite; experiment: Whole cell assay (assay 2); format: cell-based
# Description: Assay 2) Determination of Whole Cell Activity Against the Plasmodium falciparum Parasite
# Compounds can be evaluated for whole cell actvity against the Plasmodium falciparum parasite according to the procedure described in Sijwali S. and Rosenthal P. J., (2004) Proceedings of the National Academy of Sciences of the United States of America (PNAS) 101 (13), 4384-4389 (see in particular “Measurement of Parasite Growth rates and Inhibitor Sensitivity” on page 4385); IC50 values can be calculated as described in Singh A. and Rosenthal P. J., (2001) Antimicrobial Agents and Chemotherapy 45(3), 949-951 (see in particular page 950, first column); synchronised parasites can be prepared as described in Divo A. A. et al., (1985) Protozool. 32, 59-64.
# Cathepsin S = Cathepsin S (Homo sapiens, UniProt P25774); experiment: Cathepsin S enzymatic assay (assay 1); format: biochemical; conditions: human recombinant enzyme, KQKLR-AMC substrate, pH 6.5
# Procedure, shortened: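 Human recombinant cathepsin S activity was measured with the fluorogenic substrate KQKLR-AMC at 30 uM in 50 mM MES, pH 6.5, containing 0.5 mM CHAPS, 10 mM L-CYS and 5 mM EDTA with 1% DMSO. Enzyme and substrate were added to inhibitor wells, run at ambient temperature, quenched after 90 minutes with E-64, and AMC fluorescence (360/460 […]) was fit to give IC50.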
# Cathepsin K = molecular target: T1, Cathepsin K (Homo sapiens, UniProt P43235); experiment: Cathepsin K enzymatic assay (assay 1); format: biochemical; conditions: human recombinant enzyme, Z-FR-AFC substrate, pH 5.5
# T1 sequence (P43235 115-329): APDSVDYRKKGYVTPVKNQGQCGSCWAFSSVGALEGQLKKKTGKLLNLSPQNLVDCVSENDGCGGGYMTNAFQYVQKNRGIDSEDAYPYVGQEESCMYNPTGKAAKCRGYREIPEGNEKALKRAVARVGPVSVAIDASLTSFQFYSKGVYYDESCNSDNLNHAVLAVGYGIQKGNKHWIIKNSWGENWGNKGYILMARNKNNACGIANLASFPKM
# Procedure, shortened: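 Human recombinant cathepsin K was assayed with the fluorogenic substrate Z-FR-AFC at 20 uM in 100 mM sodium acetate, pH 5.5, with 5 mM L-cysteine, 1 mM CHAPS, 5 mM EDTA and 1% DMSO. Enzyme plus substrate was added to wells holding inhibitor in DMSO. After 60 minutes at ambient temperature, 16.6 uM E-64 quenched the reaction. AFC fluorescence (excitation 405 nm, emission 530 nm) was read, and IC50 came from a four-parameter dose-response fit.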
# Falcipain-3 = Falcipain-3 (Plasmodium falciparum, UniProt Q8IIL0); experiment: Falcipain-3 enzymatic assay (assay 1); format: biochemical
# Procedure, shortened: (§1)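 Recombinant parasite enzyme with 30 uM H-D-VLR-AFC in 100 mM sodium acetate pH 5.5, 10 mM DTT, 0.5 mM CHAPS, 1% DMSO, ambient temperature. Endpoint after 60 minutes, quenched with 16.6 uM E-64; AFC fluorescence (ex 405/em 530). IC50 from four-parameter fit, apparent KI assuming competitive inhibition.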
# Falcipain-2 = Falcipain-2 (Plasmodium falciparum, UniProt Q8I6U4); experiment: Falcipain-2 enzymatic assay (assay 1); format: biochemical
# Procedure, shortened: as §1
# Sequence of Cathepsin S (P25774 115-331): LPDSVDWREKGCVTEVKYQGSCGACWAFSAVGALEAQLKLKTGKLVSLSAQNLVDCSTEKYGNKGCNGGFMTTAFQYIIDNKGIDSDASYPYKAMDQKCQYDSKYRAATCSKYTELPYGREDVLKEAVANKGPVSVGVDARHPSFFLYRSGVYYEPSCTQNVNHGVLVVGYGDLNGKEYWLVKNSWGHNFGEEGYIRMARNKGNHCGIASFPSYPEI
# Sequence of Falcipain-2 (Q8I6U4 244-484): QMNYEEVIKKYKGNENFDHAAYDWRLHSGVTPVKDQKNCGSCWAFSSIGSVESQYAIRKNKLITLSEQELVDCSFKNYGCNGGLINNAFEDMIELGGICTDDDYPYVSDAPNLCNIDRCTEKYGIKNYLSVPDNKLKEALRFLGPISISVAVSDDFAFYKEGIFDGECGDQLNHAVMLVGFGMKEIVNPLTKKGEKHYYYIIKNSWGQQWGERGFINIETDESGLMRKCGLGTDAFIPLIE
# Sequence of Falcipain-3 (Q8IIL0 243-492): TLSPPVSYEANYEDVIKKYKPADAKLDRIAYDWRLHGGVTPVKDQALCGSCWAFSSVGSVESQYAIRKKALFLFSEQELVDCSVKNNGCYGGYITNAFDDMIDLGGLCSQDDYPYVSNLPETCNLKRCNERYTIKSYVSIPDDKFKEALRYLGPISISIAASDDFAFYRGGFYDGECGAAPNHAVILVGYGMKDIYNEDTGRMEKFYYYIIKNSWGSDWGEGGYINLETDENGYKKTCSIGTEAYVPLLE
structure (smiles),measurement,setting,value
"CN1CCN(Cc2ccc(C(=O)NN(c3nc(C#N)ncc3Br)C3CCCC3)cc2)CC1 [Example 1B, N′-(5-bromo-2-cyano-4-pyrimidinyl)-N′-cyclopentyl-4-[(4-methyl-1-piperazinyl)methyl]benzohydrazide hydrochloride]",pIC50,[1]; hydrochloride,7.82 to 8.60
same,pIC50,Cathepsin S,> 6.70
same,pIC50,Cathepsin K,> 8.82
"CN1CCN(Cc2ccc(C(=O)NN(c3nc(C#N)ncc3Br)C3CCCCC3)cc2)CC1 [Example 16, N′-(5-bromo-2-cyano-4-pyrimidinyl)-N′-cyclohexyl-4-[(4-methyl-1-piperazinyl)methyl]benzohydrazide trifluoroacetate]",pIC50,Falcipain-3,7.82 to 8.60
same,pIC50,[1]; Plasmodium falciparum,6.82 to 7.82
same,pIC50,Falcipain-2,> 9.00
same,pIC50,Cathepsin S,> 6.00
same,pIC50,Cathepsin K,> 8.82
"CN1CCN(Cc2ccc(-c3cncc(C(=O)NN(c4nc(C#N)ncc4Br)C4CCCC4)c3)cc2)CC1 [Example 45, N′-(5-bromo-2-cyano-4-pyrimidinyl)-N′-cyclopentyl-5-{4-[(4-methyl-1-piperazinyl)methyl]phenyl}-3-pyridinecarbohydrazide trifluoroacetate]",pIC50,Falcipain-3,7.82 to 8.60
same,pIC50,[1]; Plasmodium falciparum,7.82 to 8.60
same,pIC50,Falcipain-2,> 9.00
same,pIC50,Cathepsin S,> 6.70
same,pIC50,Cathepsin K,> 8.82
"CCCN1CCN(c2ccc(C(=O)NN(c3nc(C#N)ncc3Br)C3CCCCC3)cc2)CC1 [Example 80, N′-(5-bromo-2-cyano-4-pyrimidinyl)-N′-cyclohexyl-4-(4-propyl-1-piperazinyl)benzohydrazide trifluoroacetate]",pIC50,Falcipain-3,6.82 to 7.82
same,pIC50,[1]; Plasmodium falciparum,6.60 to 6.82
same,pIC50,Falcipain-2,> 9.00
same,pIC50,Cathepsin S,> 6.70
same,pIC50,Cathepsin K,> 8.82
"CC(C)N(CCN(C(=O)OC(C)(C)C)C(C)C)Cc1ccc(C(=O)NN(c2nc(C#N)ncc2Cl)C2CCCC2)cc1 [Example 85, 1,1-dimethylethyl{2-[[(4-{[2-(5-chloro-2-cyano-4-pyrimidinyl)-2-cyclopentylhydrazino]carbonyl}phenyl)methyl](1-methylethyl)amino]ethyl}(1-methylethyl)carbamate trifluoroacetate]",pIC50,Falcipain-3,7.82 to 8.60
same,pIC50,[1]; Plasmodium falciparum,6.60 to 6.82
same,pIC50,Falcipain-2,> 9.00
same,pIC50,Cathepsin S,> 6.70
